Data reported in ChEMBL document CHEMBL4321876 (J Med Chem, 2020).
pIC50: −log10 of the molar value. The source made the active and inactive calls. The calls are words filed in the database; no cut-off is given here.

What was measured:
[1] = Intrinsic clearance in rat liver microsomes assessed per mg protein at 0.1 uM preincubated for 10 mins followed by NADPH addition and measured up to 60 mins by UPLC-MS/MS analysis; type: ADME, Microsome; details: read-out: CLH
[2] = biological target: Voltage-gated inwardly rectifying potassium channel KCNH2 (Homo sapiens, UniProt Q12809); assay: Inhibition of human ERG
Chain of Voltage-gated inwardly rectifying potassium channel KCNH2 (Q12809 whole entry): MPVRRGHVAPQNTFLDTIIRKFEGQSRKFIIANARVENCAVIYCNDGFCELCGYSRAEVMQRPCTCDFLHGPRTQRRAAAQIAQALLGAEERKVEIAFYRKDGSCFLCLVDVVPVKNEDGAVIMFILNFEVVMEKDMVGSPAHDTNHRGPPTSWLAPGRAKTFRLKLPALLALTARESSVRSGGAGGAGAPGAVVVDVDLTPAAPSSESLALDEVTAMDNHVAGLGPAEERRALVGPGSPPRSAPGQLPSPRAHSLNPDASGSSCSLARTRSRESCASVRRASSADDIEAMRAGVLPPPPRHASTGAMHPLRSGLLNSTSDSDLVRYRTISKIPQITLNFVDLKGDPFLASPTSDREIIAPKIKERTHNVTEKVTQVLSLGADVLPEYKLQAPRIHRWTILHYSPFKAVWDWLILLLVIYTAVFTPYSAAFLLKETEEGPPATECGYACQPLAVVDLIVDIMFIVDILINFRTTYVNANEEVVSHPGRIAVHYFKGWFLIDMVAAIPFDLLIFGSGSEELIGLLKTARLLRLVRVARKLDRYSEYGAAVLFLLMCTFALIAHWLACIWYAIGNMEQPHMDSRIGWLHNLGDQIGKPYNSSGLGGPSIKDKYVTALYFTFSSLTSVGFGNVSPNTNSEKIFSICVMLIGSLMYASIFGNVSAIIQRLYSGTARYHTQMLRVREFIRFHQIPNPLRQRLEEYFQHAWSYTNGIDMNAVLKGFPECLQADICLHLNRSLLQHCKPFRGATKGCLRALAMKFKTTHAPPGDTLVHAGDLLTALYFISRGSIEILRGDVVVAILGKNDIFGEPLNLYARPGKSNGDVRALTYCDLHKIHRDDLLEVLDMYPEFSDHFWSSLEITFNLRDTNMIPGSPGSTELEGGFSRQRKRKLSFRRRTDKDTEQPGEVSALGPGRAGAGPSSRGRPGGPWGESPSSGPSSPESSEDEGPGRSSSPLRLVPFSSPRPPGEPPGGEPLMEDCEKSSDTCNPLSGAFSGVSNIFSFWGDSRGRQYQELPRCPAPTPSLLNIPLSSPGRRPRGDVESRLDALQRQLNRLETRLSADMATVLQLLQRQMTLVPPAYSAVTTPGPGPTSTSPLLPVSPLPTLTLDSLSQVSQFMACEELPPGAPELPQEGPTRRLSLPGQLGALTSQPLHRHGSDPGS

[3] = Toxicity in human MV4-11 cells xenografted Balb/c mouse assessed as body weight loss at 50 to 100 mg/kg, po administered for 28 days measured twice daily during compound dosing; type: organism-based; details: in vivo, 672 h
[4] = biological target: T1, Histone acetyltransferase p300 (Homo sapiens, UniProt Q09472); assay: Inhibition of p300 in human MV4-11 cells assessed as decrease in H3K27 acetylation measured after 6 hrs by Western blot analysis; type: cell-based
T1 sequence (Q09472 whole entry): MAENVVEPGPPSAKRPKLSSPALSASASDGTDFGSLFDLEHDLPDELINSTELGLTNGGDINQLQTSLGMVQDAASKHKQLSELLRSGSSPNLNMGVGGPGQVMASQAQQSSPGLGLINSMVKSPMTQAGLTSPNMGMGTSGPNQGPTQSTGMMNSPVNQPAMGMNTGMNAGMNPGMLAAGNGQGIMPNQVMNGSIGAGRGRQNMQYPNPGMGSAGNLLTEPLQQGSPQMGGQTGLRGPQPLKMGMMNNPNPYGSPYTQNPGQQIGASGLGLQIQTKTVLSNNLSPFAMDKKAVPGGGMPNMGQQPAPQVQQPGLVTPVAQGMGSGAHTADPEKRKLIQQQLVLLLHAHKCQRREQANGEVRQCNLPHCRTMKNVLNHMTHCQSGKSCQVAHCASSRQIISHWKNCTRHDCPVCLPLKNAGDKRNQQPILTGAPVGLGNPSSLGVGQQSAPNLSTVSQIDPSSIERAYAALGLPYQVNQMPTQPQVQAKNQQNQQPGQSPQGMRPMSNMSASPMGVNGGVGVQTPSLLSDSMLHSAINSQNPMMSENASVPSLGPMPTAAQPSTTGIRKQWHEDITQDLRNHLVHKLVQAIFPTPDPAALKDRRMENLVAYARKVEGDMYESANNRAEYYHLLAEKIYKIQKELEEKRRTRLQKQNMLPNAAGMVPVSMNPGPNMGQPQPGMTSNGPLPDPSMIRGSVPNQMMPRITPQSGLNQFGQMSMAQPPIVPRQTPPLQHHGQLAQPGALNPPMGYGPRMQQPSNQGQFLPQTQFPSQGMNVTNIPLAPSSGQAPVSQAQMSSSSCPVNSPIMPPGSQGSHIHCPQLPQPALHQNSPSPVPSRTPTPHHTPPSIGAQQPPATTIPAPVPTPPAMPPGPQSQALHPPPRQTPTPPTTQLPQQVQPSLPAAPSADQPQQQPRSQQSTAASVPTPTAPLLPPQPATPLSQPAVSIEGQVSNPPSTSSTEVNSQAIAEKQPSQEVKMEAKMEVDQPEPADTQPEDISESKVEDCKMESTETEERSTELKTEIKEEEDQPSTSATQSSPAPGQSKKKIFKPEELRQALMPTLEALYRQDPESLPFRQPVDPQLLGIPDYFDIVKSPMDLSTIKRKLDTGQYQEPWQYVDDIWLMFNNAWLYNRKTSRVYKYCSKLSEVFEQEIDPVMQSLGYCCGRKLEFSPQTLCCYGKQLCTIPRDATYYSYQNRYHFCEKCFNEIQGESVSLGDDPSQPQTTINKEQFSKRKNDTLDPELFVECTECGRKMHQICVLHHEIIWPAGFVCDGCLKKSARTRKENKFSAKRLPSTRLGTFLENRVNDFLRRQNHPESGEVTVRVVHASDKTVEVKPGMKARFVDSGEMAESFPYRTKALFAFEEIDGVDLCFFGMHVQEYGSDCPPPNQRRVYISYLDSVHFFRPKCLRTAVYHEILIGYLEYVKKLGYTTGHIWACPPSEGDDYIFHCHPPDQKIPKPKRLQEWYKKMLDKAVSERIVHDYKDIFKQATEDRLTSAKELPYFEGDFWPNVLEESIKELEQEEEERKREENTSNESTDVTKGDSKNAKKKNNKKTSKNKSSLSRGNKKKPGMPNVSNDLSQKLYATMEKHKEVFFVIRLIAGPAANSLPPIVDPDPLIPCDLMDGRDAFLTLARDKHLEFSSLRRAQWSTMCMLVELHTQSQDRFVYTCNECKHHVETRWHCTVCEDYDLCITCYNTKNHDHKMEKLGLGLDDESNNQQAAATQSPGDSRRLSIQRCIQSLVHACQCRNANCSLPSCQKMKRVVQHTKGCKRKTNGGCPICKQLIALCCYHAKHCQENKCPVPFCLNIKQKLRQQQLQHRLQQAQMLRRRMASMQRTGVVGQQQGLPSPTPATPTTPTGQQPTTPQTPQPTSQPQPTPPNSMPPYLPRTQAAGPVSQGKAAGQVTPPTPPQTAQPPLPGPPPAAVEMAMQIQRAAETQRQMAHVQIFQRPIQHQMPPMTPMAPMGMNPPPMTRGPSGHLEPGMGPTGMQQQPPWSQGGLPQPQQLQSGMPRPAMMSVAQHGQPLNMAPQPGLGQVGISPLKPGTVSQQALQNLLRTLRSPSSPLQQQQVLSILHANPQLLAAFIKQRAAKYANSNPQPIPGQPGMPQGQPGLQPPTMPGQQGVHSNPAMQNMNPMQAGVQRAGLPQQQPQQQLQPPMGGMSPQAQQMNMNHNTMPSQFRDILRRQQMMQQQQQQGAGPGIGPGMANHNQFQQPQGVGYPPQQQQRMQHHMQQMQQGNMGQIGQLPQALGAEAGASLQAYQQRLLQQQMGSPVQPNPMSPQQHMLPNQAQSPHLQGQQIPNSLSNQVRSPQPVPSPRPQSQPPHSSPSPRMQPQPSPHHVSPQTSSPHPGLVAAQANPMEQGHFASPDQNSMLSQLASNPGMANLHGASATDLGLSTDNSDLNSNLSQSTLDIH

[5] = Toxicity in human MV4-11 cells xenografted Balb/c mouse assessed as adverse effect at 50 to 100 mg/kg, po administered for 28 days; type: organism-based; details: in vivo, 672 h
Kasumi 1 = assay: Antiproliferative activity against human Kasumi-1 cells measured after 3 days by celltiter-glo luminescence assay; type: functional, cell-based; details: Kasumi 1, 72 h
[6] = biological target: T1, Histone acetyltransferase p300; assay: Inhibition of p300 in human MV4-11 cells assessed as decrease in MYC mRNA level at 0.2 to 1 uM measured after 24 hrs by SYBR dye-based qRT-PCR analysis; type: cell-based
CWR22R = assay: Antiproliferative activity against human 22Rv1 cells measured after 3 days by celltiter-glo luminescence assay; type: functional, cell-based; details: 22Rv1, 72 h
[7] = Intrinsic clearance in mouse liver microsomes assessed per mg protein at 0.1 uM preincubated for 10 mins followed by NADPH addition and measured up to 60 mins by UPLC-MS/MS analysis; type: ADME, Microsome; details: read-out: CLH
[8] = Cmax in Sprague-Dawley rat at 3 mg/kg, po by LC-MS/MS analysis; type: ADME, organism-based; set-up: dose 3 mg/kg, route oral; details: in vivo
[9] = Protein binding in rat plasma; type: ADME, cell-free; details: read-out: PPB (converted)
[10] = Clearance in Sprague-Dawley rat at 1 mg/kg, iv by LC-MS/MS analysis; type: ADME, organism-based; details: in vivo
[11] = Tmax in Sprague-Dawley rat at 3 mg/kg, po by LC-MS/MS analysis; type: ADME, organism-based; details: in vivo
MV4-11 [12] = assay: Antiproliferative activity against human MV4-11 cells measured after 3 days by celltiter-glo luminescence assay; type: functional, cell-based; details: MV4-11, 72 h
[13] = Half life in Sprague-Dawley rat at 1 mg/kg, iv by LC-MS/MS analysis; type: ADME, organism-based; details: in vivo
MV4-11 [14] = assay: Antitumor activity against human MV4-11 cells xenografted in Balb/c mouse assessed as tumor growth inhibition at 50 mg/kg, po administered for 28 days measured twice daily during compound dosing relative to control; type: functional; details: MV4-11, po, 672 h, read-out: TGI
[15] = AUClast in Sprague-Dawley rat at 1 mg/kg, iv by LC-MS/MS analysis; type: ADME, organism-based; set-up: dose 1 mg/kg, route intravenous, time 0 - last; details: in vivo
[16] = Oral bioavailability in Sprague-Dawley rat at 3 mg/kg by LC-MS/MS analysis; type: ADME, organism-based; details: in vivo
[17] = biological target: T1, Histone acetyltransferase p300; assay: Binding affinity to p300 in human MV4-11 cells assessed as stabilization of protein measured after 12 hrs by CETSA; type: cell-based
HT = assay: Antiproliferative activity against human HT cells measured after 3 days by celltiter-glo luminescence assay; type: functional, cell-based; details: 72 h
MV4-11 [18] = assay: Antitumor activity against human MV4-11 cells xenografted in Balb/c mouse assessed as tumor growth inhibition at 100 mg/kg, po administered for 28 days measured twice daily during compound dosing relative to control; type: functional; details: MV4-11, po, 672 h, read-out: TGI
K562 = assay: Antiproliferative activity against human K562 cells measured after 3 days by celltiter-glo luminescence assay; type: functional, cell-based; details: K562, 72 h
[19] = Volume of distribution at steady state in Sprague-Dawley rat at 1 mg/kg, iv by LC-MS/MS analysis; type: ADME, organism-based; details: in vivo, read-out: Vdss
[20] = AUClast in Sprague-Dawley rat at 3 mg/kg, po by LC-MS/MS analysis; type: ADME, organism-based; set-up: dose 3 mg/kg, time 0 - last, route oral; details: in vivo
LNCaP-Clone-FGC = assay: Antiproliferative activity against human LNCaP-FGC cells measured after 5 days by celltiter-glo luminescence assay; type: functional, cell-based; details: 120 h
[21] = Intrinsic clearance in human liver microsomes assessed per mg protein at 0.1 uM preincubated for 10 mins followed by NADPH addition and measured up to 60 mins by UPLC-MS/MS analysis; type: ADME, Microsome; details: read-out: CLH
Maver1 = assay: Antiproliferative activity against human Maver1 cells measured after 3 days by celltiter-glo luminescence assay; type: functional, cell-based; details: Maver1, 72 h
[22] = Half life in Sprague-Dawley rat at 3 mg/kg, po by LC-MS/MS analysis; type: ADME, organism-based; details: in vivo
[23] = biological target: T1, Histone acetyltransferase p300; assay: Inhibition of p300 (unknown origin) using histone H3 (1 to 21 residues) as substrate preincubated for 15 mins followed by substrate and [3H]acetyl-CoA addition and measured after 60 mins by scintillation counting analysis

- microsomal CLint at 0.1 µM [1]: 32.7 µL/min/mg
- inhibition [4]: Dose-dependent effect
- inhibition [6]: Active
- microsomal CLint at 0.1 µM [7]: 36.8 µL/min/mg
- Cmax [8]: 1120 nM
- fraction unbound [9]: 0.018
- clearance [10]: 13.4 mL/min/kg
- Tmax [11]: 49.8 min
- pIC50 (MV4-11 [12]): 8.38
- half-life [13]: 90 min
- AUC(0-t) [15]: 2.22 µM·h
- bioavailability [16]: 56%
- Activity [17]: Dose-dependent effect
- pIC50 (K562): 6.98
- Vd [19]: 1.5 L/kg
- AUC(0-t) [20]: 3.71 µM·h
- pIC50 (LNCaP-Clone-FGC): 8.01
- microsomal CLint at 0.1 µM [21]: 18.2 µL/min/mg
- half-life [22]: 61.2 min
- pIC50 [23]: 8.74
SMILES: Cn1cc(-c2ccc3c(c2)CC[C@]32NC(=O)N(CC(=O)N3Cc4cc(F)ccc4OC[C@H]3C(F)(F)F)C2=O)cn1
- pIC50 [2]: < 4.40
- Activity [3]: Non-Toxic
- Activity [5]: Non-Toxic
- pIC50 (Kasumi 1): 7.39
- pIC50 (CWR22R): 8.36
- inhibition in vivo at 50 mg/kg (MV4-11 [14]): 75%
- pIC50 (HT): < 5.00
- inhibition in vivo at 100 mg/kg (MV4-11 [18]): 85.7%
- pIC50 (Maver1): 8.59
